Our source for the kIAM' and Ki values is ChEMBL document CHEMBL1134477, “Combinatorial lead optimization of a neuropeptide FF antagonist” (J Med Chem, 2001).

Experiment [1] in a line: K' value on the basis of IAM (immobilized artificial membrane) retention. The format is functional.
Experiment [2] deals with Neuropeptide FF receptor 2 (Rattus norvegicus, UniProt Q9EQD2). The experiment can be described thus: Binding affinity towards NPFF receptor was measured by the displacement of [125I]-YLFQPQRF-NH2. In general terms: Displacement assays read how much labelled ligand stays bound in the presence of the test substance.
Chain of Neuropeptide FF receptor 2 (Q9EQD2 whole entry): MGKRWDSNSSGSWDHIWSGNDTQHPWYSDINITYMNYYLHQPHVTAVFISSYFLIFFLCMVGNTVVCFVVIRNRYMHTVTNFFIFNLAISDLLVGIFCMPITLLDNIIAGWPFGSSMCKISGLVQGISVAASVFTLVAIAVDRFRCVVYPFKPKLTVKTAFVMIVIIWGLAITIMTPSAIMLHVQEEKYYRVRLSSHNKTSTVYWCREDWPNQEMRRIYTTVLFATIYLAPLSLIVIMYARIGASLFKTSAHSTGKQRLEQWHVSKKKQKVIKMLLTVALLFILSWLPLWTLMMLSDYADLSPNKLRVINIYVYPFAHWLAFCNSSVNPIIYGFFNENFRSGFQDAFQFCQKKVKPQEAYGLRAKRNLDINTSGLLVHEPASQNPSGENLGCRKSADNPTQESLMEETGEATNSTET

Where a SMILES comes first, the peptide text is derived from it. The star is where a group is joined. Dansyl = CN(C)c1cccc2c(S(=O)(=O)*)cccc12; Desaminotyrosyl = O=C(CCc1ccc(O)cc1)*

As usually defined, the Ki is the equilibrium dissociation constant of an inhibitor or competing ligand from its target. Read a high Ki as a looser hold on the target. In turn, `CN(C)c1cccc2c(S(=O)(=O)NCC(=O)N[C@@H](CO)C(=O)N[C@@H](CCCN=C(N)N)C(N)=O)cccc12` (Dansyl-Gly-Ser-Arg-NH2) came in with a kIAM' in experiment [1] of 8. Also, in experiment [2], the Ki worked out at 1400 nM. In experiment [2], `CC(C)C[C@H](NC(=O)[C@H](Cc1ccccc1)NC(=O)CCc1ccc(O)cc1)C(=O)N[C@@H](Cc1ccccc1)C(=O)N[C@@H](CCC(N)=O)C(=O)N1CCC[C@H]1C(=O)N[C@@H](CCC(N)=O)C(=O)N[C@@H](CCCNC(=N)N)C(N)=O` (Desaminotyrosyl-FLFQPQR-NH2) gave an inhibition constant (Ki) of 840 nM.

The molecule `CN(C)c1cccc2c(S(=O)(=O)N3CCC[C@H]3C(=O)N[C@@H](CCC(N)=O)C(=O)N[C@@H](CCCNC(=N)N)C(N)=O)cccc12` [DANSYLPQRAMIDE] showed a kIAM' in experiment [1] of 5.9. In experiment [2], the inhibition constant (Ki) was determined as 13600 nM.
